Data reported in patent US11753407B2, “Compounds for treating spinal muscular atrophy” (PTC Therapeutics, Inc., priority 2012, dated 2023).

Columns and labels:
[1] = system: SMN2 minigene mRNA (SMN2-A minigene) in HEK293H cells; assay: SMN2 minigene mRNA splicing RT-qPCR assay in cultured cells; type: cell-based, human; conditions: Homo sapiens, HEK293-H; concentration increasing full length SMN2 mRNA 1.5-fold relative to vehicle-treated cells; HEK293H cells with SMN2-A minigene, 24 hours, 7-point concentration data; read-out: EC1.5x for production of full length SMN2 mRNA
Method in brief: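 EC1.5× values derive from a 24 h treatment of SMN2-A minigene HEK293H cells and GAPDH-normalized RT-qPCR of exon 7-included minigene mRNA relative to vehicle-treated cells.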

[2] = system: Smn protein in SMA patient fibroblast cells (GM03813); assay: Smn protein assay in cultured cells (SMN HTRF); type: cell-based, human; conditions: SMA patient fibroblast cells, 48 hours; for maximum fold (Fold) increase of Smn protein: 7-point concentration data, fold relative to vehicle control; for EC1.5x for Smn protein expression: 7-point concentration curve, SMN HTRF, concentration producing 1.5 times Smn protein vs DMSO vehicle control
Method in brief: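 Cells were cultured 72 h, seeded at 5,000/well and dosed with seven concentrations (3.16-fold apart) for 48 h. HTRF on lysates, read at 665 and 620 nm, gave blank-corrected ΔF values relative to DMSO. Potency is reported as EC1.5×, efficacy as maximal fold Smn increase.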

COc1ccc(-c2cc(=O)n3cc(N(C)[C@@H]4CCNC4)ccc3n2)cc1F [Compound 233, 2-(3-fluoro-4-methoxyphenyl)-7-{methyl[(3R)-pyrrolidin-3-yl]amino}-4H-pyrido[1,2-a]pyrimidin-4-one]
melting point: 143 to 147 °C
EC (1.5-fold increase) [1]: 0.3 to 1 µM
maximum fold (Fold) increase of Smn protein [2]: * (A maximum fold increase of ≤1.2 is indicated by one star (*))

Cc1nc2ccc(-c3cc(=O)n4cc(N5CCN(C)[C@@H](C)C5)ccc4n3)cc2o1 [Compound 234, 7-[(3S)-3,4-dimethylpiperazin-1-yl]-2-(2-methyl-1,3-benzoxazol-6-yl)-4H-pyrido[1,2-a]pyrimidin-4-one]
melting point: 205 to 209 °C
EC (1.5-fold increase) [1]: < 0.1 µM
EC1.5x for Smn protein expression [2]: **** (an EC1.5x≤0.3 μM is indicated by four stars (****))
maximum fold (Fold) increase of Smn protein [2]: ***** (a fold increase >1.65 is indicated by five stars (*****))

COc1ccc(-c2cc(=O)n3cc(O[C@H]4CCNC4)ccc3n2)cc1OC [Compound 236, 2-(3,4-dimethoxyphenyl)-7-[(3S)-pyrrolidin-3-yloxy]-4H-pyrido[1,2-a]pyrimidin-4-one]
melting point: 164 to 166 °C
EC (1.5-fold increase) [1]: 1 to 3 µM
EC1.5x for Smn protein expression [2]: * (An EC1.5× for Smn protein expression between >3 μM and ≤10 μM is indicated by one star (*))
maximum fold (Fold) increase of Smn protein [2]: *** (a fold increase between >1.35 and ≤1.5 is indicated by three stars (***))

COc1ccc(-c2cc(=O)n3cc(N4CCCNCC4)cc(C)c3n2)cc1OC [Compound 238, 7-(1,4-diazepan-1-yl)-2-(3,4-dimethoxyphenyl)-9-methyl-4H-pyrido[1,2-a]pyrimidin-4-one]
melting point: 160 to 177 °C
EC (1.5-fold increase) [1]: 0.3 to 1 µM
maximum fold (Fold) increase of Smn protein [2]: ** (a fold increase between >1.2 and ≤1.35 is indicated by two stars (**))

Cc1nc2ccc(-c3cc(=O)n4cc(N5CCC(N(C)C)CC5)ccc4n3)cc2o1 [Compound 240, 7-[4-(dimethylamino)piperidin-1-yl]-2-(2-methyl-1,3-benzoxazol-6-yl)-4H-pyrido[1,2-a]pyrimidin-4-one]
melting point: 206 to 210 °C
EC (1.5-fold increase) [1]: < 0.1 µM
EC1.5x for Smn protein expression [2]: **** (an EC1.5x≤0.3 μM is indicated by four stars (****))
maximum fold (Fold) increase of Smn protein [2]: **** (a fold increase between >1.5 and ≤1.65 is indicated by four stars (****))

Cc1nc2ccc(-c3cc(=O)n4cc(N5CC[C@H](N(C)C)C5)ccc4n3)cc2o1 [Compound 241, 7-[(3S)-3-(dimethylamino)pyrrolidin-1-yl]-2-(2-methyl-1,3-benzoxazol-6-yl)-4H-pyrido[1,2-a]pyrimidin-4-one]
melting point: 189 to 193 °C
EC (1.5-fold increase) [1]: 0.1 to 0.3 µM
EC1.5x for Smn protein expression [2]: **** (an EC1.5x≤0.3 μM is indicated by four stars (****))
maximum fold (Fold) increase of Smn protein [2]: ***** (a fold increase >1.65 is indicated by five stars (*****))

Cc1nc2ccc(-c3cc(=O)n4cc(N5CCN(C)[C@H](C)C5)ccc4n3)cc2o1 [Compound 244, 7-[(3R)-3,4-dimethylpiperazin-1-yl]-2-(2-methyl-1,3-benzoxazol-6-yl)-4H-pyrido[1,2-a]pyrimidin-4-one]
melting point: 181 to 187 °C
EC (1.5-fold increase) [1]: < 0.1 µM
EC1.5x for Smn protein expression [2]: **** (an EC1.5x≤0.3 μM is indicated by four stars (****))
maximum fold (Fold) increase of Smn protein [2]: **** (a fold increase between >1.5 and ≤1.65 is indicated by four stars (****))

COc1ccc(-c2cc(=O)n3cc(N4C[C@H]5CCN(C)[C@H]5C4)ccc3n2)cc1F [Compound 246, 2-(3-fluoro-4-methoxyphenyl)-7-[(3aR,6aR)-1-methylhexahydropyrrolo[3,4-b]pyrrol-5(1H)-yl]-4H-pyrido[1,2-a]pyrimidin-4-one]
melting point: 205 to 209 °C
EC (1.5-fold increase) [1]: 1 to 3 µM
maximum fold (Fold) increase of Smn protein [2]: * (A maximum fold increase of ≤1.2 is indicated by one star (*))

COc1ccc(-c2cc(=O)n3cc(C4=CCNCC4)cc(C)c3n2)cc1OC [Compound 247, 2-(3,4-dimethoxyphenyl)-9-methyl-7-(1,2,3,6-tetrahydropyridin-4-yl)-4H-pyrido[1,2-a]pyrimidin-4-one]
melting point: 186 to 191 °C
EC (1.5-fold increase) [1]: < 0.1 µM
EC1.5x for Smn protein expression [2]: **** (an EC1.5x≤0.3 μM is indicated by four stars (****))
maximum fold (Fold) increase of Smn protein [2]: ***** (a fold increase >1.65 is indicated by five stars (*****))

COc1ccc(-c2cc(=O)n3cc(C4=CCN(CCO)CC4)ccc3n2)cc1OC [Compound 248, 2-(3,4-dimethoxyphenyl)-7-[1-(2-hydroxyethyl)-1,2,3,6-tetrahydropyridin-4-yl]-4H-pyrido[1,2-a]pyrimidin-4-one]
melting point: 134 to 137 °C
EC (1.5-fold increase) [1]: 0.3 to 1 µM
EC1.5x for Smn protein expression [2]: *** (an EC1.5× between >0.3 μM and ≤1 μM is indicated by three stars (***))
maximum fold (Fold) increase of Smn protein [2]: **** (a fold increase between >1.5 and ≤1.65 is indicated by four stars (****))

COc1ccc(-c2cc(=O)n3cc(C4CCNCC4)cc(C)c3n2)cc1OC [Compound 250, 2-(3,4-dimethoxyphenyl)-9-methyl-7-(piperidin-4-yl)-4H-pyrido[1,2-a]pyrimidin-4-one]
melting point: 176 to 181 °C
EC (1.5-fold increase) [1]: < 0.1 µM
EC1.5x for Smn protein expression [2]: **** (an EC1.5x≤0.3 μM is indicated by four stars (****))
maximum fold (Fold) increase of Smn protein [2]: ***** (a fold increase >1.65 is indicated by five stars (*****))

COc1ccc(-c2cc(=O)n3cc(C4=CCN(C)CC4)cc(C)c3n2)cc1OC [Compound 251, 2-(3,4-dimethoxyphenyl)-9-methyl-7-(1-methyl-1,2,3,6-tetrahydropyridin-4-yl)-4H-pyrido[1,2-a]pyrimidin-4-one]
melting point: 187 to 196 °C
EC (1.5-fold increase) [1]: < 0.1 µM
EC1.5x for Smn protein expression [2]: **** (an EC1.5x≤0.3 μM is indicated by four stars (****))
maximum fold (Fold) increase of Smn protein [2]: ***** (a fold increase >1.65 is indicated by five stars (*****))

COc1ccc(-c2cc(=O)n3cc(C4CCN(C)CC4)cc(C)c3n2)cc1OC [Compound 252, 2-(3,4-dimethoxyphenyl)-9-methyl-7-(1-methylpiperidin-4-yl)-4H-pyrido[1,2-a]pyrimidin-4-one]
melting point: 170 to 174 °C
EC (1.5-fold increase) [1]: 0.1 to 0.3 µM
EC1.5x for Smn protein expression [2]: *** (an EC1.5× between >0.3 μM and ≤1 μM is indicated by three stars (***))
maximum fold (Fold) increase of Smn protein [2]: **** (a fold increase between >1.5 and ≤1.65 is indicated by four stars (****))

Cc1nc2ccc(-c3cc(=O)n4cc(N5CCCNCC5)ccc4n3)cc2s1 [Compound 253, 7-(1,4-diazepan-1-yl)-2-(2-methyl-1,3-benzothiazol-6-yl)-4H-pyrido[1,2-a]pyrimidin-4-one]
melting point: 205 to 207 °C
EC (1.5-fold increase) [1]: 1 to 3 µM
maximum fold (Fold) increase of Smn protein [2]: * (A maximum fold increase of ≤1.2 is indicated by one star (*))

Cc1nc2ccc(-c3cc(=O)n4cc(N5CCCN(C)CC5)ccc4n3)cc2s1 [Compound 254, 2-(2-methyl-1,3-benzothiazol-6-yl)-7-(4-methyl-1,4-diazepan-1-yl)-4H-pyrido[1,2-a]pyrimidin-4-one]
melting point: 158 to 160 °C
EC (1.5-fold increase) [1]: 0.1 to 0.3 µM
EC1.5x for Smn protein expression [2]: ** (an EC1.5× between >1 μM and ≤3 μM is indicated by two stars (**))
maximum fold (Fold) increase of Smn protein [2]: *** (a fold increase between >1.35 and ≤1.5 is indicated by three stars (***))
